From the NIST ThermoML archive (doi:10.1021/je201211f)

Columns and labels:
[1] = 298.15 K, 101.33 kPa, Liquid; for viscosity: Capillary tube (Ostwald / Ubbelohde) method; for mass density: Vibrating tube method
[2] = refractive index (Na D-line) (dimensionless); conditions: 298.15 K; 101.33 kPa; Liquid; Standard Abbe refractometry
[3] = xn = mol fraction of the nth substance listed; conditions: 101 kPa, Liquid; for mass density: Vibrating tube method; for viscosity: Capillary tube (Ostwald / Ubbelohde) method
[4] = refractive index (Na D-line) (dimensionless); xn = mol fraction of the nth substance listed; conditions: 298.15 K, 101 kPa, Liquid

CC(=O)O [acetic acid]
Conditions	mass density [kg/m3]	refractive index	viscosity [mPa·s]
[1]	1043.58	–	1.127
[2]	–	1.3698	–

Cc1ccc(C)cc1 [1,4-dimethylbenzene]
Conditions	mass density [kg/m3]	refractive index	viscosity [mPa·s]
[1]	856.68	–	0.609
[2]	–	1.4929	–

ClC=C(Cl)Cl [trichloroethene]
Conditions	mass density [kg/m3]	refractive index	viscosity [mPa·s]
[1]	1455.53	–	0.582
[2]	–	1.475	–

Cc1ccc(C)cc1 [1,4-dimethylbenzene] + CC(=O)O
[3]
Conditions	mass density, 293.15 K [kg/m3]	mass density, 298.15 K [kg/m3]	mass density, 303.15 K [kg/m3]	viscosity, 298.15 K [mPa·s]
x2 = 0.0415	864.09	859.71	855.31	–
x2 = 0.0863	–	–	–	0.6099
x2 = 0.1166	870.08	865.62	861.15	–
x2 = 0.157	873.55	869.05	864.53	–
x2 = 0.1651	874.28	869.76	865.24	–
x2 = 0.173	–	–	–	0.6095
x2 = 0.2386	–	–	–	0.6117
x2 = 0.2466	882	877.4	872.79	–
x2 = 0.2659	884.01	879.38	874.76	–
x2 = 0.3096	–	–	–	0.6159
x2 = 0.3246	890.49	885.78	881.08	–
x2 = 0.3987	–	–	–	0.625
x2 = 0.4234	902.44	897.64	892.81	–
x2 = 0.4717	909.04	904.17	899.29	–
x2 = 0.4897	–	–	–	0.6398
x2 = 0.5505	921.33	916.35	911.38	–
x2 = 0.5621	–	–	–	0.6575
x2 = 0.6323	–	–	–	0.68
x2 = 0.6435	938.19	933.07	927.95	–
x2 = 0.7212	–	–	–	0.7243
x2 = 0.7299	957.01	951.78	946.53	–
x2 = 0.7965	–	–	–	0.7753
x2 = 0.8099	977.97	972.61	967.24	–
x2 = 0.8784	–	–	–	0.8675
x2 = 0.8851	1001.76	996.29	990.81	–
x2 = 0.955	–	–	–	1.003
x2 = 0.9601	1030.99	1025.4	1019.76	–

[4]
Conditions	refractive index
x2 = 0.0863	1.4874
x2 = 0.173	1.4805
x2 = 0.2386	1.4748
x2 = 0.3096	1.4682
x2 = 0.3987	1.4598
x2 = 0.4897	1.4498
x2 = 0.5621	1.4414
x2 = 0.6323	1.4325
x2 = 0.7212	1.4202
x2 = 0.7965	1.4084
x2 = 0.8784	1.3939
x2 = 0.955	1.3791

Cc1ccccc1C [1,2-dimethylbenzene] + CC(=O)O
[3]
Conditions	mass density, 293.15 K [kg/m3]	mass density, 298.15 K [kg/m3]	mass density, 303.15 K [kg/m3]	viscosity, 298.15 K [mPa·s]
x2 = 0.0479	882.96	878.72	874.46	–
x2 = 0.0852	–	–	–	0.7491
x2 = 0.1264	888.76	884.42	880.07	–
x2 = 0.1881	–	–	–	0.7412
x2 = 0.2399	898.21	893.74	889.26	–
x2 = 0.2447	–	–	–	0.7448
x2 = 0.2632	900.31	895.82	891.31	–
x2 = 0.3036	904.17	899.62	895.06	–
x2 = 0.3206	–	–	–	0.7457
x2 = 0.3894	–	–	–	0.7476
x2 = 0.4089	915.71	911.04	906.34	–
x2 = 0.4323	918.49	913.77	909.03	–
x2 = 0.4729	–	–	–	0.7532
x2 = 0.479	924.47	919.7	914.91	–
x2 = 0.5609	935.9	930.9	926.08	–
x2 = 0.5694	–	–	–	0.7667
x2 = 0.6332	947.71	942.68	937.66	–
x2 = 0.6388	–	–	–	0.7838
x2 = 0.7151	–	–	–	0.8113
x2 = 0.7184	964.07	958.92	953.75	–
x2 = 0.7912	980.62	975.33	970.03	–
x2 = 0.8031	–	–	–	0.8592
x2 = 0.8814	1005.53	1000.08	994.74	–
x2 = 0.8817	–	–	–	0.9274
x2 = 0.9589	–	–	–	1.035
x2 = 0.9652	1034.87	1029.28	1023.69	–

[4]
Conditions	refractive index
x2 = 0.0852	1.4965
x2 = 0.1881	1.4875
x2 = 0.2447	1.4816
x2 = 0.3206	1.4747
x2 = 0.3894	1.4672
x2 = 0.4729	1.4579
x2 = 0.5569	1.4472
x2 = 0.636	1.4363
x2 = 0.7151	1.424
x2 = 0.8031	1.4099
x2 = 0.8817	1.3951
x2 = 0.9589	1.379

ClC=C(Cl)Cl [trichloroethene] + Cc1cccc(C)c1
[3]
Conditions	mass density, 293.15 K [kg/m3]	mass density, 298.15 K [kg/m3]	mass density, 303.15 K [kg/m3]	viscosity, 298.15 K [mPa·s]
x1 = 0.0494	886.2	881.77	877.34	–
x1 = 0.0768	–	–	–	0.5895
x1 = 0.0796	899.93	895.43	890.91	–
x1 = 0.1465	–	–	–	0.5893
x1 = 0.1531	934.34	929.62	924.88	–
x1 = 0.23	971.87	966.92	961.95	–
x1 = 0.2415	–	–	–	0.5895
x1 = 0.3097	1012.52	1007.32	1002.09	–
x1 = 0.3204	–	–	–	0.5897
x1 = 0.3935	–	–	–	0.5893
x1 = 0.4065	1064.66	1059.1	1053.53	–
x1 = 0.4841	1108.6	1102.78	1096.93	–
x1 = 0.496	–	–	–	0.5883
x1 = 0.5561	1151.33	1145.2	1139.05	–
x1 = 0.5613	–	–	–	0.5875
x1 = 0.6423	–	–	–	0.5863
x1 = 0.6453	1206.86	1200.35	1193.84	–
x1 = 0.709	1248.6	1241.79	1234.95	–
x1 = 0.7204	–	–	–	0.5851
x1 = 0.7639	–	–	–	0.5844
x1 = 0.7989	1310.61	1303.35	1296.06	–
x1 = 0.8774	–	–	–	0.5823
x1 = 0.8937	1380.16	1372.41	1364.61	–
x1 = 0.9596	–	–	–	0.5808
x1 = 0.974	1442.88	1434.66	1426.38	–

[4]
Conditions	refractive index
x1 = 0.085	1.4932
x1 = 0.1622	1.4922
x1 = 0.2415	1.4908
x1 = 0.3204	1.4894
x1 = 0.3935	1.488
x1 = 0.496	1.4859
x1 = 0.5613	1.4845
x1 = 0.6429	1.4825
x1 = 0.7226	1.4807
x1 = 0.8061	1.4789
x1 = 0.8832	1.4773
x1 = 0.9596	1.4756
